Molecular target: human P2X3 receptor (Homo sapiens (Human), UniProt P56373)
Assay: Evaluation of human P2X3 receptor inhibitory activity (Fluo-3 calcium fluorescence, FDSS 3000, ATP stimulation);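 also: stimulus was 50 nM ATP with fluorescence followed for 3 min, and the response per well was peak post-ATP fluorescence divided by the reading at measurement start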
Type: cell-based
Settings: human P2X3 receptor, Test Example 1

Chain of human P2X3 receptor (P56373 whole entry): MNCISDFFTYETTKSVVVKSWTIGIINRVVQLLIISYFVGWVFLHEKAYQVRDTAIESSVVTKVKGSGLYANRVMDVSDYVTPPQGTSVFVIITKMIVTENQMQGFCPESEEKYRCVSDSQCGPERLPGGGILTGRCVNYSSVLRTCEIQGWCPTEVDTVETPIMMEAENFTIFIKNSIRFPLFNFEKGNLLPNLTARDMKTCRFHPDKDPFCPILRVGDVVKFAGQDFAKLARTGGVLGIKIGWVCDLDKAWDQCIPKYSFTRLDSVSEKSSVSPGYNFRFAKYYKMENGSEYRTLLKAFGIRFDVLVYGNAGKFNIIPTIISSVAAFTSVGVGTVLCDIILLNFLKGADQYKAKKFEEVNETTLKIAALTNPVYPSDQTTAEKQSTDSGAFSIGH

Structure (SMILES)	IC50 [nM]
O=c1[nH]/c(=N\c2ccc(Oc3ncccn3)cc2)n(Cc2ccc(Cl)cc2)c(=O)n1CC(CO)CO [Compound I-2544]	11
N#Cc1ccc(Oc2ccc(/N=c3\[nH]c(=O)n(CCO)c(=O)n3Cc3ccc(Cl)cc3)cc2)cc1 [Compound I-2545]	7
NC(=O)c1ccc(Oc2ccc(/N=c3\[nH]c(=O)n(C[C@H](O)CO)c(=O)n3Cc3ccc(Cl)cc3)cc2)cc1 [Compound I-2546]	6
COCCn1c(=O)[nH]/c(=N\c2ccc(Oc3cncc(C(=O)O)c3)cc2)n(Cc2ccc(Cl)cc2)c1=O [Compound I-2547]	8
COCCn1c(=O)[nH]/c(=N\c2ccc(Oc3cccc(C(=O)O)n3)cc2)n(Cc2ccc(Cl)cc2)c1=O [Compound I-2548]	6
CCOC(=O)CNc1cc(Oc2ccc(/N=c3\[nH]c(=O)n(CC)c(=O)n3Cc3ccc(Cl)cc3)cc2)ccn1 [Compound I-2549]	12
CCOC(=O)CCn1c(=O)[nH]/c(=N\c2ccc(Oc3ncccn3)cc2)n(Cc2ccc(Cl)cc2)c1=O [Compound I-2550]	4
COC(=O)CCn1c(=O)[nH]/c(=N\c2ccc(Oc3ncccn3)cc2)n(Cc2ccc(C)cc2)c1=O [Compound I-2551]	4
COCCn1c(=O)[nH]/c(=N\c2ccc(Oc3ccnc(C(=O)O)c3)cc2)n(Cc2ccc(Cl)cc2)c1=O [Compound I-2552]	5
CCn1c(=O)[nH]/c(=N\c2ccc(Oc3cccc(C(=O)O)n3)cc2)n(Cc2ncc(Cl)cn2)c1=O [Compound I-2553]	216
CCn1c(=O)[nH]/c(=N\c2ccc(Oc3ccnc(NCC(N)=O)c3)cc2)n(Cc2ccc(Cl)cc2)c1=O [Compound I-2554]	7
CCn1c(=O)[nH]/c(=N\c2ccc(Oc3ccnc(NCC(=O)NC)c3)cc2)n(Cc2ccc(Cl)cc2)c1=O [Compound I-2555]	16
CCn1c(=O)[nH]/c(=N\c2ccc(Oc3ccnc(NCC(=O)O)c3)cc2)n(Cc2ccc(Cl)cc2)c1=O [Compound I-2556]	5
O=C(O)CCn1c(=O)[nH]/c(=N\c2ccc(Oc3ncccn3)cc2)n(Cc2ccc(Cl)cc2)c1=O [Compound I-2557]	19
Cc1ccc(Cn2c(=O)n(CCC(=O)O)c(=O)[nH]/c2=N\c2ccc(Oc3ncccn3)cc2)cc1 [Compound I-2558]	22
NC(=O)c1ccc(Oc2ccc(/N=c3\[nH]c(=O)n(CCO)c(=O)n3Cc3ccc(Cl)cc3)cc2)cc1 [Compound I-2559]	8
N#Cc1ccc(Oc2ccc(/N=c3\[nH]c(=O)n(C[C@@H](O)CO)c(=O)n3Cc3ccc(Cl)cc3)cc2)cc1 [Compound I-2560]	5
CCOC(=O)Cn1c(=O)[nH]/c(=N\c2ccc(Oc3cccc(F)n3)cc2)n(Cc2ccc(Cl)cc2)c1=O [Compound I-2562]	4
O=c1[nH]/c(=N\c2ccc(Oc3ccsn3)cc2)n(Cc2ccc(Cl)cc2)c(=O)n1CCO [Compound I-2563]	15
O=C(O)Cn1c(=O)[nH]/c(=N\c2ccc(Oc3cccc(F)n3)cc2)n(Cc2ccc(Cl)cc2)c1=O [Compound I-2564]	269
NC(=O)CCn1c(=O)[nH]/c(=N\c2ccc(Oc3ncccn3)cc2)n(Cc2ccc(Cl)cc2)c1=O [Compound I-2565]	17
Cc1ccc(Cn2c(=O)n(CCC(N)=O)c(=O)[nH]/c2=N\c2ccc(Oc3ncccn3)cc2)cc1 [Compound I-2566]	17
CCn1c(=O)[nH]/c(=N\c2ccc(Oc3ncc(C(=O)O)s3)cc2)n(Cc2ccc(F)cc2)c1=O [Compound I-2567]	38

Structure (SMILES)	IC50 [nM]
CCn1c(=O)[nH]/c(=N\c2ccc(Oc3nc(C(=O)O)cs3)cc2)n(Cc2ccc(F)cc2)c1=O [Compound I-2568]	87
CCn1c(=O)[nH]/c(=N\c2ccc(Nc3ccncc3)cc2)n(Cc2ccc(C)cc2)c1=O [Compound I-2569]	162
CCOC(=O)Cn1c(=O)[nH]/c(=N\c2ccc(Oc3nc(C)ns3)cc2)n(Cc2ccc(Cl)cc2)c1=O [Compound I-2570]	5
Cc1nsc(Oc2ccc(/N=c3\[nH]c(=O)n(CC(C)(CO)CO)c(=O)n3Cc3ccc(F)cc3)cc2)n1 [Compound I-2571]	7
CCn1c(=O)[nH]/c(=N\c2ccc(Oc3ccncc3)cc2)n(Cc2ccc(C)cc2)c1=O [Compound I-2573]	6
CC(CO)(CO)Cn1c(=O)[nH]/c(=N\c2ccc(Oc3ccon3)c(F)c2)n(Cc2ccc(F)cc2)c1=O [Compound I-2574]	11
Cc1nsc(Oc2ccc(/N=c3\[nH]c(=O)n(CCO)c(=O)n3Cc3ccc(Cl)cc3)cc2)n1 [Compound I-2575]	6
Cc1nsc(Oc2ccc(/N=c3\[nH]c(=O)n(CC(C)(CO)CO)c(=O)n3Cc3ccc(Cl)cc3)cc2)n1 [Compound I-2576]	3
Cc1nsc(Oc2ccc(/N=c3\[nH]c(=O)n(C[C@@H](O)CO)c(=O)n3Cc3ccc(Cl)cc3)cc2)n1 [Compound I-2577]	8
CCOC(=O)Cn1c(=O)[nH]/c(=N\c2ccc(Oc3ccon3)c(F)c2)n(Cc2ccc(Cl)cc2)c1=O [Compound I-2578]	6
Cc1nsc(Oc2ccc(/N=c3\[nH]c(=O)n(CC(=O)O)c(=O)n3Cc3ccc(Cl)cc3)cc2)n1 [Compound I-2579]	71
O=C(O)Cn1c(=O)[nH]/c(=N\c2ccc(Oc3ccon3)c(F)c2)n(Cc2ccc(Cl)cc2)c1=O [Compound I-2580]	204
CNC(=O)Cn1c(=O)[nH]/c(=N\c2ccc(Oc3nc(C)ns3)cc2)n(Cc2ccc(Cl)cc2)c1=O [Compound I-2581]	5
O=c1[nH]/c(=N\c2ccc(Oc3cccc(F)n3)cc2)n(Cc2ccc(Cl)cc2)c(=O)n1CC(CO)CO [Compound I-2582]	3
O=c1[nH]/c(=N\c2ccc(Oc3cccc(F)n3)cc2)n(Cc2ccc(F)cc2)c(=O)n1CC(CO)CO [Compound I-2583]	15
NC(=O)Cn1c(=O)[nH]/c(=N\c2ccc(Oc3cccc(F)n3)cc2)n(Cc2ccc(Cl)cc2)c1=O [Compound I-2584]	8
CNC(=O)Cn1c(=O)[nH]/c(=N\c2ccc(Oc3cccc(F)n3)cc2)n(Cc2ccc(Cl)cc2)c1=O [Compound I-2585]	8
NC(=O)Cn1c(=O)[nH]/c(=N\c2ccc(Oc3ccon3)c(F)c2)n(Cc2ccc(Cl)cc2)c1=O [Compound I-2586]	7
CNC(=O)Cn1c(=O)[nH]/c(=N\c2ccc(Oc3ccon3)c(F)c2)n(Cc2ccc(Cl)cc2)c1=O [Compound I-2587]	7
CCn1c(=O)[nH]/c(=N\c2ccc(Oc3ccnc(NCCO)c3)cc2)n(Cc2ccc(Cl)cc2)c1=O [Compound I-2588]	11
Cc1nsc(Oc2ccc(/N=c3\[nH]c(=O)n(CC(N)=O)c(=O)n3Cc3ccc(Cl)cc3)cc2)n1 [Compound I-2589]	6
CNC(=O)Cn1c(=O)[nH]/c(=N\c2ccc(Oc3ccon3)cc2)n(Cc2ccc(Cl)cc2)c1=O [Compound I-2590]	17
CCn1c(=O)[nH]/c(=N\c2cccc(Oc3cccc(C#N)n3)c2)n(Cc2ccc(Cl)cc2)c1=O [Compound I-2591]	51

Structure (SMILES)	IC50 [nM]
CCn1c(=O)[nH]/c(=N\c2cccc(Oc3cccc(C(=O)O)n3)c2)n(Cc2ccc(Cl)cc2)c1=O [Compound I-2592]	350
CCn1c(=O)[nH]/c(=N\c2ccc(Oc3cccc(C(=O)NC#N)n3)cc2)n(Cc2ccc(Cl)cc2)c1=O [Compound I-2593]	1
O=c1[nH]/c(=N\c2ccc(Oc3noc(C4CC4)n3)cc2)n(Cc2ccc(Cl)cc2)c(=O)n1CC(CO)CO [Compound I-2595]	27
O=c1[nH]/c(=N\c2ccc(Oc3noc(C4CC4)n3)cc2)n(Cc2ccc(Cl)cc2)c(=O)n1C[C@H](O)CO [Compound I-2596]	51
CCn1c(=O)[nH]/c(=N\c2ccc(Sc3ccc(C(=O)OC)cc3)cc2)n(Cc2ccc(Cl)cc2)c1=O [Compound I-2597]	215
CCn1c(=O)[nH]/c(=N\c2ccc(Sc3nc[nH]n3)cc2)n(Cc2ccc(Cl)cc2)c1=O [Compound I-2598]	341
CCn1c(=O)[nH]/c(=N\c2ccc(Oc3ccnnc3)cc2)n(Cc2ccc(C)cc2)c1=O [Compound I-2599]	4
CCn1c(=O)[nH]/c(=N\c2ccc(Oc3ccnnc3)cc2)n(Cc2ccc(Cl)cc2)c1=O [Compound I-2600]	4
CCn1c(=O)[nH]/c(=N\c2ccc(Oc3ccc(C#N)nn3)cc2)n(Cc2ccc(Cl)cc2)c1=O [Compound I-2601]	12
CCn1c(=O)[nH]/c(=N\c2ccc(Oc3cccc(-c4nnn[nH]4)n3)cc2)n(Cc2ccc(Cl)cc2)c1=O [Compound I-2602]	2
CCn1c(=O)[nH]/c(=N\c2ccc(Sc3ccc(C(=O)O)cc3)cc2)n(Cc2ccc(Cl)cc2)c1=O [Compound I-2603]	125
N#CNC(=O)Cn1c(=O)[nH]/c(=N\c2ccc(Oc3ccon3)cc2)n(Cc2ccc(Cl)cc2)c1=O [Compound I-2604]	21
Cc1nsc(Oc2ccc(/N=c3\[nH]c(=O)n(CC(CO)CO)c(=O)n3Cc3ccc(F)cc3)cc2)n1 [Compound I-2605]	14
Cc1nsc(Oc2ccc(/N=c3\[nH]c(=O)n(CCCO)c(=O)n3Cc3ccc(F)cc3)cc2)n1 [Compound I-2606]	14
Cc1nsc(Oc2ccc(/N=c3\[nH]c(=O)n(C[C@H](O)CO)c(=O)n3Cc3ccc(F)cc3)cc2)n1 [Compound I-2607]	20
CCn1c(=O)[nH]/c(=N\c2ccc(Oc3nc(C(N)=O)cs3)cc2)n(Cc2ccc(Cl)cc2)c1=O [Compound I-2608]	6
CCn1c(=O)[nH]/c(=N\c2ccc(Oc3ncc(C(N)=O)s3)cc2)n(Cc2ccc(Cl)cc2)c1=O [Compound I-2609]	2
Cc1cccc(Oc2ccc(/N=c3\[nH]c(=O)n(CC(CO)CO)c(=O)n3Cc3ccc(Cl)cc3)cc2)n1 [Compound I-2610]	12
CCn1c(=O)[nH]/c(=N\c2ccc(Oc3cccnn3)cc2)n(Cc2ccc(Cl)cc2)c1=O [Compound I-2611]	14
CCn1c(=O)[nH]/c(=N\c2ccc(Oc3ccc(C#N)cc3)nc2)n(Cc2ccc(Cl)cc2)c1=O [Compound I-2613]	137
CCOC(=O)CNc1ccc(Oc2ccc(/N=c3\[nH]c(=O)n(CC)c(=O)n3Cc3ccc(Cl)cc3)cc2)cn1 [Compound I-2614]	27

— US9718790B2, “Triazine derivative and pharmaceutical composition having an analgesic activity comprising the same” (SHIONOGI & CO., LTD., priority 2010, dated 2017)
